“Also recorded” adds a separate entry of the source. Where two headings read alike, the source gives them in different places.
What was measured:
[1] = tested on: young and old mice; experiment: NAD+ levels in vivo after systemic NMN
Experimental: FIG. 42 is a graph showing that the NAD^+ precursor NMN raises NAD^+ levels in vivo in young and old mice. Cardiac [NAD^+] declines with age and is reversed by NMN treatment (n=3; 200 mg·kg·d. I.P. for 1 week).
(§1) NMN is delivered by intraperitoneal (I.P.) injection and raises NAD levels in brain, heart and skeletal muscle ˜30-100%. NMN increases mitochondrial function in C2C12 cells in a SIRT1-dependent manner (FIGS. 43C, D). sh Ct1=scrambled shRNA, Sh SIRT1=shRNA against SIRT1.
(§2) NMN and other compounds that increase NAD^+ levels are useful for increasing fertility or otherwise reducing or reversing infertility in a female subject. In one embodiment, such compounds are delivered to a subject orally, by intraperitoneal injection (IP), or subcutaneously to increase the probability that the subject will conceive and deliver healthy offspring. Systemic administration of the NAD^+ precursor NMN raised NAD^+ levels in vivo in young and old mice. Cardiac [NAD^+] declines with age. This decline in NAD^+ was reversed by NMN treatment (n=3; 200 mg·kg·d. I.P. for 1 week)(FIG. 42). […] In another embodiment, NMN and other compounds that increase NAD^+ levels are delivered to an OSC, oocyte, blasotcyst, sperm, or isolated mitochondria in vitro. For example, such compounds are delivered to a germ cell prior to, during or following IVF. In another embodiment, a compound of the invention is used to enhance the yield or preservation of mitochondria from an OSC, oocyte, blasotcyst, sperm, or isolated mitochondria in vitro.

[2] = tested on: C2C12 cells; experiment: Mitochondrial function in C2C12 cells with NMN (scrambled vs SIRT1 shRNA); format: cell-based; details: SIRT1-dependent manner
Excerpt: as §1

[3] = tested on: skeletal muscle of 24-month old mice; experiment: Mitochondrial function in vivo after NMN; details: 1 week of treatment, I.P.
Excerpt: as §1, §2

[4] = tested on: cultured murine oogonial stem cells; experiment: Spontaneous oocyte formation in cultured murine OSCs after NMN; format: cell-based; details: 25,000 OSCs per well of a 24-well plate
Experimental: FIG. 41 is a graph showing that nicotinamide mononucleotide increases spontaneous oocyte formation in cultured murine oogonial stem cells. For assessment of spontaneous oocyte formation, each well of a 24-well plate was seeded with 25,000 OSCs, and the number of oocytes formed and released into the medium per well was assessed the second day after seeding as well as the designated time points after NMN treatment.
Each well of a 24-well plate was seeded with 25,000 OSCs. The number of oocytes formed and released into the medium per well was assessed the second day after seeding as well as the designated time points after NMN treatment. […] NMN treatment is also expected to enhance the function of OCSsOSCs, oocytes, granulose cells, and blood vessels in the ovary.

[5] = tested on: murine oogonial stem cells (OSCs); experiment: NAD+/NADH quantitation in murine OSCs treated with NMN; format: cell-based; details: NMN added at 12 h and 6 h prior to analysis
Experimental: FIGS. 39A-39C are graphs showing that nicotinamide mononucleotides raise cellular NAD^+ and NAD+/NADH in murine oogonial stem cells (OSCs). Oogonial stem cells were isolated from dissociated ovaries using a FACS based sorting protocol to purify OSCs free of contaminating oocytes (see Example 1). Cells were maintained in culture medium consisted of minimum essential medium α (MEMα), 10% FBS, 1 mM sodium pyruvate, 1 mM non-essential amino acids, 2 mM L-glutamine, 0.1 mM β-mercaptoethanol (Sigma Aldrich Corporation, St. Louis, Mo., USA), 10 ng/ml-1 LIF (Millipore), 1× N-2 MAX Media Supplement (R&D) 10 ng/ml EGF (Epidermal growth factor, Recombinant human; Gibco Division of ThermoFisher Scientific, Waltham, Mass., USA), 40 ng/ml human GDNF (glial cell line-derived neurotrophic factor; R&D systems), 1 ng/ml human bFGF (basic fibroblast growth factor; Gibco Division of ThermoFisher Scientific, Waltham, Mass., USA).
Oogonial stem cells were isolated from dissociated ovaries using a FACS based sorting protocol to purify OSCs free of contaminating oocytes (for details, see Example 1), Cells were maintained in culture medium consisted of minimum essential medium α (MEMα), 10% FBS, 1 mM sodium pyruvate, 1 mM […], 2 mM L-1-glutamine, 0.1 mM β-mercaptoethanol (Sigma), 10 ng/ml-1 LIF (Millipore), 1× N-2 MAX Media Supplement (R&D) 10 ng/ml EGF (Epidermal growth factor, Recombinant human; Gibco Division of Thermofisher Scientific, Waltham, Mass., USA), 40 ng/nil human GDNF (glial cell line-derived neurotrophic factor; R&D systems), 1 ng/ml human bFGF (basic fibroblast growth factor; Gibco Division of Thermofisher Scientific, Waltham, Mass., USA)
For all experiments 25,000 cells were plated in each well of a 24 well plate. Cells were allowed to attach for twenty-four hours and then were treated with NMN (β-Nicotinamide mononucleotide; Sigma). Unless otherwise stated, NMN was added twice to the cells, first at twelve hours and then again at six hours prior to analysis (12+6 h). Mitochondrial DNA Copy number was analysed as follows. Total cellular DNA was isolated from cells at the indicated time points using DNeasy Blood & Tissue Kit (Qiagen) according to the manufacturer's instructions. Mitochondrial DNA copy number was quantified using LIGHTCYCLER 480 SYBR® Green I Master (Roche Applied Science, Penzberg, Germany) using the following primers on a LIGHTCYCLER480 PCR machine (Roche Applied Science (Penzberg, Germany).
OSCs and oocytes treated with an NAD precursor (e.g. […] ie. “NMN”, see FIG. 38) had increased NAD^+, NAD^+:NADH, and mitochondrial DNA content (FIG. 40).

[6] = tested on: murine OSCs; experiment: Mitochondrial DNA copy number in murine OSCs treated with NMN; format: cell-based
Excerpt: FIG. 40 is a graph showing that nicotinamide mononucleotide increases mitochondrial DNA content in murine OSCs. Total cellular DNA was isolated from cells at the indicated time points using DNEASY® Blood & Tissue Kit (Qiagen, Venlo, The Netherlands) according to the manufacturer's instructions. Mt DNA copy number was quantified using LIGHTCYCLER®480 SYBR® Green I Master (Roche Applied Science, Penzberg, Germany) using a LIGHTCYCLER®480 PCR machine (Roche Applied Science, Penzberg, Germany). […]
For all experiments 25,000 cells were plated in each well of a 24 well plate. […] Mitochondrial DNA Copy number was analysed as follows. […] Mitochondrial DNA copy number was quantified using LIGHTCYCLER 480 SYBR® Green I Master (Roche Applied Science, Penzberg, Germany) using the following primers on a LIGHTCYCLER480 PCR machine (Roche Applied Science (Penzberg, Germany).

[7] = tested on: Mouse OSCs; experiment: NAD+ and NADH levels in mouse OSCs treated with mitochondrial enhancers; format: cell-based; details: 24 hours
Experimental: FIG. 35 depicts levels of NAD+ (A) and NADH (B) in OSCs treated with mitochondrial enhancers. Mouse OSCs maintained in culture (Zou et al., Nat Cell Biol 2009 11:631-636) were exposed to the indicated test compounds for 24 hours and then assessed for levels of NAD+ and NADH. Female infertility due to chemotherapy, aging and premature ovarian failure (POF) is due in part to a decline in mitochondrial function in oocytes and OSCs. Accordingly, OSCs from mice were used to screen for small compounds that enhance mitochondrial function (“bioenergetic status”) in female germline cells. Assays for enhancing mitochondrial function included mtDNA content, ATP, NAD+/NADH, mitochondrial mass, mitochondrial membrane potential, and gene expression of known mitochondrial mass regulators and electron transport chain components. All the compounds were dissolved in DMSO. For screening purposes the cells were treated with the vehicle (0.001% DMSO) or with 25 or 50 μM of each compound (except for berberine, which the concentrations used for the screen were 5 μM and 25 μM) for 24 hours. For validation of the top 6 hits, cells were treated with vehicle (0.001% DMSO) or either 5 or 25 μM of each compound for 24 hours. For the gene expression profile, the cells were treated with the concentration that was considered to work better in the previous validation assays.

[8] = tested on: OSCs from mice; experiment: Screen of mouse OSCs for compounds that enhance mitochondrial function (mtDNA, ATP, mitochondrial mass, membrane potential, gene expression); format: cell-based; details: 24 hours
Excerpt: Female infertility due to chemotherapy, aging and premature ovarian failure (POF) is due in part to a decline in mitochondrial function in oocytes and OSCs. Accordingly, OSCs from mice were used to screen for small compounds that enhance mitochondrial function (“bioenergetic status”) in female germline cells. Assays for enhancing mitochondrial function included mtDNA content, ATP, NAD+/NADH, mitochondrial mass, mitochondrial membrane potential, and gene expression of known mitochondrial mass regulators and electron transport chain components.
All the compounds were dissolved in DMSO. For screening purposes the cells were treated with the vehicle (0.001% DMSO) or with 25 or 50 μM of each compound (except for berberine, which the concentrations used for the screen were 5 μM and 25 μM) for 24 hours. For validation of the top 6 hits, cells were treated with vehicle (0.001% DMSO) or either 5 or 25 μM of each compound for 24 hours. For the gene expression profile, the cells were treated with the concentration that was considered to work better in the previous validation assays.
Mitochondrial membrane potential was measured with a fluorescent probe, Tetramethylrhodamine methyl ester (TMRM) (Sigma) as described before (Rolo A. P. Biochim. Biophys. Acta 2003 1637: 127-132). Briefly the cells were loaded with 6.6 μM TMRM in HBSS buffer at 37° C. for 15 minutes in the dark. The supernatant was then aspirated, and the cells returned to the original volume with KHH. TMRM is a membrane-permeable cationic fluorophore that accumulates electrophoretically in mitochondria in proportion to their mitochondrial membrane potential (Ehrenberg B. V. et al. Biophys. J. 1988 53:785-794). Cell suspensions (200 μl containing 10^5 cells) were loaded into 96-well plates and fluorescence measured using excitation and emission wavelengths of 485 and 590 nm, respectively. Mitochondrial membrane potential was estimated, taking into account the complete depolarization caused by carbonyl cyanide p-(trifluoromethoxy)phenylhydrazone (FCCP).
For mtDNA analysis, total DNA was extracted with DNeasy blood and tissue kit (QIAGEN). mtDNA was amplified using primers specific for the mitochondrial cytochrome c oxidase subunit 2 (COX2) gene and normalized to genomic DNA by amplification of the ribosomal protein s18 (rps18) nuclear gene. Primers were designed using the IDT software (IDT).
ATP content was measured using a luciferase-based assay with a commercial kit according to the manufacturer's instructions (Roche Applied Science, Penzberg, Germany) and normalized to protein content in each sample.
Mitochondrial mass was evaluated using the fluorescent probe N-nonyl acridine orange (NAO), briefly the cells were incubated in culture media containing 10 nM of NAO for 30 minutes at 37° C. in the dark. The cells were then trypsinized and resuspended in culture media without NAO. The NAO fluorescence intensity was then determined by flow cytometry on the FACSCALIBUR® (BD Biosciences, San Jose, Calif., USA) using the 488 nm laser.
For gene expression analysis, RNA from skeletal muscle tissue and C2C12 cells were extracted with RNeasy mini kit (QIAGEN) according to the instructions and quantified using the NanoDrop 1000 spectrophotometer (Thermo Scientific). cDNA was synthesized with the iSCRIP cDNA synthesis kit (BioRad) using 200 ng of RNA. Quantitative RT-PCR reactions were performed using 1 μM of primers and LIGHTCYCLER® 480 SYBR® Green Master (Roche Applied Science, Penzberg, Germany) on an LIGHTCYCLER® 480 detection system (Roche Applied Science, Penzberg, Germany). Calculations were performed by a comparative method (2-ΔΔCT) using actin as an internal control. Primers were designed using the IDT software (IDT).

[9] = listed as nicotinamide mononucleotide
[10] = listed as nicotinamide mononucleotides

NC(=O)c1ccc[n+]([C@@H]2O[C@H](COP(=O)([O-])O)[C@@H](O)[C@H]2O)c1 [NMN, β-Nicotinamide mononucleotide]
decline of cardiac [NAD^+] with age ([1]; 200 mg·kg·d. I.P. for 1 week, n=3): reversed | raise of NAD levels in brain, heart and skeletal muscle ([1]; intraperitoneal (I.P.) injection): 30-100% | NAD^+ levels in vivo ([1]; young and old mice, systemic administration): raises | mitochondrial function in C2C12 cells [2]: increases | mitochondrial function in vivo (decline in skeletal muscle of 24-month old mice) [3]: restorative effect; also recorded: completely reversed | spontaneous oocyte formation (rate of egg formation, EFA) [4]: increased | spontaneous oocyte formation (rate of egg formation, EFA) [4, 9]: increases | NAD+/NADH [5]: increased | cellular NAD^+ [5]: increased | NAD+/NADH [5, 10]: raise | cellular NAD^+ [5, 10]: raise | mitochondrial DNA content [6]: increased | mitochondrial DNA content [6, 9]: increases

N#CC(C#N)=Cc1ccc(O)cc1 [tyrphostin 8, 2[(4-hydroxyphenyl)methylidene]propanedinitrile]
NAD^+ levels [7]: raise | mitochondrial parameters [8]: increase mitochondrial parameters in a beneficial way | activity above the baseline (DMSO alone), scored as a positive result ([8]; 25 or 50 μM (berberine 5 μM and 25 μM)): activity above the baseline

Reference: patent publication US9845482B2, “Compositions and methods for enhancing bioenergetic status in female germ cells” (The General Hospital Corporation, priority 2011, dated 2017)
